Reference: ChEMBL document CHEMBL3407334, “Synthesis of novel inhibitors of α-glucosidase based on the benzothiazole skeleton containing benzohydrazide moiety and their molecular docking studies” (Eur J Med Chem, 2015)

Each compound was assayed against Maltase-glucoamylase (Homo sapiens, UniProt O43451) (assay: Inhibition of alpha-glucosidase (unknown origin) using pNPG substrate incubated for 15 mins by microplate reader based method).
Maltase-glucoamylase, sequence (O43451 whole entry): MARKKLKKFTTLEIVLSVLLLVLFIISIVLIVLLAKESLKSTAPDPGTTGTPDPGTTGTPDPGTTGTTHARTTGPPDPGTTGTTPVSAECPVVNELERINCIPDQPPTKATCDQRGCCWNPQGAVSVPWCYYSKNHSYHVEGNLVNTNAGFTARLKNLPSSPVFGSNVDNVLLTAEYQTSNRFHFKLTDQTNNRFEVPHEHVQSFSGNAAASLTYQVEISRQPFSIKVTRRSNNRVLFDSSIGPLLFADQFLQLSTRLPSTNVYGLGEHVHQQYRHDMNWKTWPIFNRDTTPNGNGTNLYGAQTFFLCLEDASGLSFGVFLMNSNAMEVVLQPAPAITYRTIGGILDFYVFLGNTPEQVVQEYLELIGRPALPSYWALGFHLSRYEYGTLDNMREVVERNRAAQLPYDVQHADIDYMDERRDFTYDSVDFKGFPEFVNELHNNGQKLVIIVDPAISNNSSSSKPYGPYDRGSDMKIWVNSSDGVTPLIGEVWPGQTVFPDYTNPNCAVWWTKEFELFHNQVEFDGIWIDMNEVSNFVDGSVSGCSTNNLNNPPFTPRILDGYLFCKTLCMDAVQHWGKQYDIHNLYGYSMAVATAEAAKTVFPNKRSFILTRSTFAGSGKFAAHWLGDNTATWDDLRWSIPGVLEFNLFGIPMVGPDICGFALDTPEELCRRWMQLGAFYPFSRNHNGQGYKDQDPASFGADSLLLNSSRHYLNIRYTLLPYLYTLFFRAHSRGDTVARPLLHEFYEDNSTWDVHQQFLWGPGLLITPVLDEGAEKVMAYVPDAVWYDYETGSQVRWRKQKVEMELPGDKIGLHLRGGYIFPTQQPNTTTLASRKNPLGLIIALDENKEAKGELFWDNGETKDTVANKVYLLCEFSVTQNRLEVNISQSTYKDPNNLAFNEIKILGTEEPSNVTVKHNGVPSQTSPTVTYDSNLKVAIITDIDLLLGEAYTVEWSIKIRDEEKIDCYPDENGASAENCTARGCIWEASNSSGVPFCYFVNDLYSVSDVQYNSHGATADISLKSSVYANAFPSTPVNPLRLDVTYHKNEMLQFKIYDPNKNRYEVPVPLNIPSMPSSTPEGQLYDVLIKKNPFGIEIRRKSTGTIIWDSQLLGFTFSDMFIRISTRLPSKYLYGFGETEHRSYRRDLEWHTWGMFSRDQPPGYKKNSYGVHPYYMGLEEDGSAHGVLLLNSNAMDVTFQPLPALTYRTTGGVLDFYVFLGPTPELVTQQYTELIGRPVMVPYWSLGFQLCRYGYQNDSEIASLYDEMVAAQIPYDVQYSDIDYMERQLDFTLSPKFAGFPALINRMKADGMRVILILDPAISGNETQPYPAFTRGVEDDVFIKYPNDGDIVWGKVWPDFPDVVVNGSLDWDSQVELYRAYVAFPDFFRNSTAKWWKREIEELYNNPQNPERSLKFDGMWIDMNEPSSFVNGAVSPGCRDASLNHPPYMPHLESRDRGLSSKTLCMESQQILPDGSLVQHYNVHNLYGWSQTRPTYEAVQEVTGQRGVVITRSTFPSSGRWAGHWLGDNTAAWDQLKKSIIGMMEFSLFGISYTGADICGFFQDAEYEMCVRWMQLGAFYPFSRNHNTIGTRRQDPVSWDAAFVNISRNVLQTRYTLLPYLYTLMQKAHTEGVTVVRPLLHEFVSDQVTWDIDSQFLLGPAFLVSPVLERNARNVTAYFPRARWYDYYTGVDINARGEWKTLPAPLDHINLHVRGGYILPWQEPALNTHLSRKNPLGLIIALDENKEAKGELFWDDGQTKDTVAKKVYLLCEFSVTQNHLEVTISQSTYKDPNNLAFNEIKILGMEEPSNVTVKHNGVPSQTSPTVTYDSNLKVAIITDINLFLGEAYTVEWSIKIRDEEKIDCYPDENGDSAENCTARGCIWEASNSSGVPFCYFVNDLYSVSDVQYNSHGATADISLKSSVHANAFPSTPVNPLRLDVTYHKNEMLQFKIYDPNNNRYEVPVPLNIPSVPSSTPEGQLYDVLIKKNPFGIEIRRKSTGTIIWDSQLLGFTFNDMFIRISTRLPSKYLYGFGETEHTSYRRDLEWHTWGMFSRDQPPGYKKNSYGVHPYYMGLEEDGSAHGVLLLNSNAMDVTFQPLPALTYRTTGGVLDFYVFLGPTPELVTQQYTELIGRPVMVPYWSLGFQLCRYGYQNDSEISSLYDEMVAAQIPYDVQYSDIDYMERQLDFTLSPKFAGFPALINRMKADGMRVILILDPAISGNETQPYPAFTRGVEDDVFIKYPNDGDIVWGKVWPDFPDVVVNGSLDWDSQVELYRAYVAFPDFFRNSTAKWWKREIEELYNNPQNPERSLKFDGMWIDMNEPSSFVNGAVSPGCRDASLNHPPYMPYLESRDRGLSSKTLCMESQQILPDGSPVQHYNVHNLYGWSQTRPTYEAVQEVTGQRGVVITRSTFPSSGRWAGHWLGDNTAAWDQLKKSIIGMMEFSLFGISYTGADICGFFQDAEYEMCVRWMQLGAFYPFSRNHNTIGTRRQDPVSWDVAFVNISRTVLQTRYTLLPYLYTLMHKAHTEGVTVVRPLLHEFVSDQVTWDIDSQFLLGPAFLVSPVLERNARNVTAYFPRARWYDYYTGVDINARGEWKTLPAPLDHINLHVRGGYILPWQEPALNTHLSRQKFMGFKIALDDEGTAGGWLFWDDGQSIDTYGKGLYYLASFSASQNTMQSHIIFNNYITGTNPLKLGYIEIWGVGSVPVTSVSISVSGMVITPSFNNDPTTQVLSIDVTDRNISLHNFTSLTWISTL
With `O=C(N/N=C/c1cccnc1)c1ccc(-c2nc3ccccc3s2)cc1` the IC50 was “Not Active”. With `COC(=O)c1ccc(/C=N/NC(=O)c2ccc(-c3nc4ccccc4s3)cc2)cc1` the IC50 was “Not Active”. With `COc1ccc(/C=N/NC(=O)c2ccc(-c3nc4ccccc4s3)cc2)cc1OC` the IC50 was “Not Active”. With `COc1ccc(/C=N/NC(=O)c2ccc(-c3nc4ccccc4s3)cc2)cc1O` the IC50 was “Not Active”. With `O=C(N/N=C/c1ccncc1)c1ccc(-c2nc3ccccc3s2)cc1` the IC50 was “Not Active”.
